Assay results as given in article PMC6792352, “Limited Chemical Structural Diversity Found to Modulate Thyroid Hormone Receptor in the Tox21 Chemical Library” (Environmental Health Perspectives, 2019).
Where a name gives a salt, the structure may show the parent alone. Read-outs that look alike come from different tables or passages of the source.

Assays:
GH3-TRE-Luc cell line = settings: read-out: AC50 (uM) modified / 1000, viability, 1 nM T3 present, 24 h
in vitro = settings: rat, gh3-tre-luc cells, AC50 (uM) modified / 1000

`CCCCCC(=O)O[C@]1(C(C)=O)CC[C@H]2[C@@H]3CCC4=CC(=O)CC[C@]4(C)[C@H]3CC[C@@]21C` [Hydroxyprogesterone caproate] showed a CC50 (GH3-TRE-Luc cell line; Tox21_110001=Tox21_302333) of 26.2 µM and a CC50 at 24 h (in vitro) of 17.9 µM.
Work on `OCCOCCN1CCN(C(c2ccccc2)c2ccc(Cl)cc2)CC1` (stereo not drawn) [Hydroxyzine] yielded a CC50 (GH3-TRE-Luc cell line; Tox21_110001=Tox21_302563) of 16.6 µM and a CC50 at 24 h (in vitro) of 18.1 µM.
`C=CCOC(Cn1ccnc1)c1ccc(Cl)cc1Cl` (stereo not drawn) [Imazalil] gave a CC50 (GH3-TRE-Luc cell line; Tox21_110001=Tox21_300720) of 79.9 µM and a CC50 at 24 h (in vitro) of 53.5 µM.
For `O=c1c(O)c(-c2ccc(O)cc2)oc2cc(O)cc(O)c12` [Kaempferol], the CC50 (GH3-TRE-Luc cell line; Tox21_110001=Tox21_303363) was 50 µM and the CC50 at 24 h (in vitro) was 66.6 µM.
`CC(CCc1ccccc1)NCC(O)c1ccc(O)c(C(N)=O)c1` (stereo not drawn) [Labetalol hydrochloride] gave a CC50 (GH3-TRE-Luc cell line; Tox21_110001=Tox21_302725) of 24.7 µM and a CC50 at 24 h (in vitro) of 14.1 µM.
`CCCCCCCCCCCCOC(=O)c1cc(O)c(O)c(O)c1` [Lauryl gallate] gave a CC50 (GH3-TRE-Luc cell line; Tox21_110001=Tox21_303487) of 3.66 µM and a CC50 at 24 h (in vitro) of 2.89 µM.
With `CCCCC/C=C\C/C=C\CCCCCCCC(=O)O` [Linoleic acid] the CC50 (GH3-TRE-Luc cell line; Tox21_110001=Tox21_303080) was 58.3 µM and the CC50 at 24 h (in vitro) was greater than 90 µM.
In the case of `C[C@H](CCC(=O)O)[C@H]1CC[C@H]2[C@@H]3CC[C@@H]4C[C@H](O)CC[C@]4(C)[C@H]3CC[C@]12C` [Lithocholic acid], the CC50 (GH3-TRE-Luc cell line; Tox21_110001=Tox21_302791) was 47.9 µM and the CC50 at 24 h (in vitro) was 24.5 µM.
`CC[C@H](C)C(=O)O[C@H]1C[C@@H](C)C=C2C=C[C@H](C)[C@H](CC[C@@H]3C[C@@H](O)CC(=O)O3)[C@H]21` [Lovastatin] showed a CC50 (GH3-TRE-Luc cell line; Tox21_110001=Tox21_110888) of 43 µM, a CC50 (GH3-TRE-Luc cell line; Tox21_110001=Tox21_300268) of 67 µM and a CC50 at 24 h (in vitro) of 73.4 µM.
`N#C/C(=C1/SC[C@@H](c2ccc(Cl)cc2Cl)S1)n1ccnc1` [Luliconazole] gave a CC50 (GH3-TRE-Luc cell line; Tox21_110001=Tox21_112974) of 40.6 µM and a CC50 at 24 h (in vitro) greater than 50 µM.
In the case of `CNCCCC12CCC(c3ccccc31)c1ccccc12` [Maprotiline], the CC50 (GH3-TRE-Luc cell line; Tox21_110001=Tox21_110200) was 11.7 µM and the CC50 at 24 h (in vitro) was 6.11 µM.
`CCCCC/C=C\C/C=C\CCCCCCCC(=O)OC` [Methyl linoleate] showed a CC50 (GH3-TRE-Luc cell line; Tox21_110001=Tox21_302917) of 74 µM and a CC50 at 24 h (in vitro) greater than 90 µM.
With `Cc1cc(C(C)(C)CC(C)(C)C)ccc1OCCOCC[N+](C)(C)Cc1ccccc1` [Methylbenzethonium chloride] the CC50 (GH3-TRE-Luc cell line; Tox21_110001=Tox21_301446) was 7.92 µM and the CC50 at 24 h (in vitro) was 9.38 µM.
For `CC[C@@]1([C@@H]2O[C@@H]([C@H]3O[C@@](O)(CO)[C@H](C)C[C@@H]3C)C[C@@H]2C)CC[C@H]([C@]2(C)CC[C@]3(C[C@H](O)[C@@H](C)[C@@H]([C@@H](C)[C@@H](OC)[C@H](C)C(=O)O)O3)O2)O1` [Monensin sodium], the CC50 (GH3-TRE-Luc cell line; Tox21_110001=Tox21_113191) was 0.38 µM and the CC50 at 24 h (in vitro) was 0.446 µM.
With `CO/N=C1\C[C@]2(C[C@@H]3C[C@@H](C/C=C(\C)C[C@@H](C)/C=C/C=C4\CO[C@@H]5[C@H](O)C(C)=C[C@@H](C(=O)O3)[C@]45O)O2)O[C@H](/C(C)=C/C(C)C)[C@H]1C` [Moxidectin] the CC50 (GH3-TRE-Luc cell line; Tox21_110001=Tox21_113093) was 4.45 µM and the CC50 at 24 h (in vitro) was 5.14 µM.
Work on `O=C1c2ccccc2C(=O)N1SC1CCCCC1` [N-(Cyclohexylthio)phthalimide] yielded a CC50 (GH3-TRE-Luc cell line; Tox21_110001=Tox21_303596) of 23.2 µM and a CC50 at 24 h (in vitro) of 37 µM.
`CCN(CCN)c1cccc(C)c1` [N-Ethyl-N-(3-methylphenyl)ethane-1,2-diamine] showed a CC50 (GH3-TRE-Luc cell line; Tox21_110001=Tox21_303371) of 69.9 µM and a CC50 at 24 h (in vitro) of 61.5 µM.
Work on `c1ccc(Nc2cccc3ccccc23)cc1` [N-Phenyl-1-naphthylamine] yielded a CC50 (GH3-TRE-Luc cell line; Tox21_110001=Tox21_303075) of 61.1 µM and a CC50 at 24 h (in vitro) of 64.9 µM.
For `c1ccc(Nc2ccc3ccccc3c2)cc1` [N-Phenyl-2-naphthylamine], the CC50 (GH3-TRE-Luc cell line; Tox21_110001=Tox21_302900) was greater than 90 µM and the CC50 at 24 h (in vitro) was 47.3 µM.
For `O=C(Nc1ccc([N+](=O)[O-])cc1Cl)c1cc(Cl)ccc1O` [Niclosamide], the CC50 (GH3-TRE-Luc cell line; Tox21_110001=Tox21_110209) was 0.618 µM and the CC50 at 24 h (in vitro) was 0.487 µM.
In the case of `COC(=O)C1=C(C)NC(C)=C(C(=O)OCC(C)C)C1c1ccccc1[N+](=O)[O-]` (stereo not drawn) [Nisoldipine], the CC50 (GH3-TRE-Luc cell line; Tox21_110001=Tox21_112251) was 37.2 µM and the CC50 at 24 h (in vitro) was 51.4 µM.
`CC(=O)Oc1ccccc1C(=O)Nc1ncc([N+](=O)[O-])s1` [Nitazoxanide] showed a CC50 (GH3-TRE-Luc cell line; Tox21_110001=Tox21_111018) of 27.7 µM and a CC50 at 24 h (in vitro) of 23.7 µM.
`O=C1CN(/N=C/c2ccc([N+](=O)[O-])o2)C(=O)N1` [Nitrofurantoin] gave a CC50 (GH3-TRE-Luc cell line; Tox21_110001=Tox21_300602) of 70.6 µM and a CC50 at 24 h (in vitro) of 62.5 µM.
Compound `CCCCCCCCn1sccc1=O` [Octhilinone] has a CC50 (GH3-TRE-Luc cell line; Tox21_110001=Tox21_300566) of 3.8 µM and a CC50 at 24 h (in vitro) of 5.52 µM.
`CC(C)(C)CC(C)(C)c1ccc(O)c(-n2nc3ccccc3n2)c1` [Octrizole] gave a CC50 (GH3-TRE-Luc cell line; Tox21_110001=Tox21_112086) of 21.6 µM, a CC50 (GH3-TRE-Luc cell line; Tox21_110001=Tox21_300498) of 32.7 µM and a CC50 at 24 h (in vitro) of 35.4 µM.
Work on `CCCCCCCCOC(=O)c1ccc(O)cc1` [Octylparaben] yielded a CC50 (GH3-TRE-Luc cell line; Tox21_110001=Tox21_303430) of 46 µM and a CC50 at 24 h (in vitro) of 60.4 µM.
For `OCCN1CCN(CCCN2c3ccccc3C=Cc3ccccc32)CC1` [Opipramol dihydrochloride], the CC50 (GH3-TRE-Luc cell line; Tox21_110001=Tox21_113153) was 8.37 µM and the CC50 at 24 h (in vitro) was 6.78 µM.
`CC(C)Oc1cc(-n2nc(C(C)(C)C)oc2=O)c(Cl)cc1Cl` [Oxadiazon] showed a CC50 (GH3-TRE-Luc cell line; Tox21_110001=Tox21_300668) of 74.7 µM and a CC50 at 24 h (in vitro) of 50.6 µM.
`CCOc1cc(Oc2ccc(C(F)(F)F)cc2Cl)ccc1[N+](=O)[O-]` [Oxyfluorfen] showed a CC50 (GH3-TRE-Luc cell line; Tox21_110001=Tox21_300827) of 50 µM and a CC50 at 24 h (in vitro) of 79.3 µM.
With `CCC(CC)Nc1c([N+](=O)[O-])cc(C)c(C)c1[N+](=O)[O-]` [Pendimethalin] the CC50 (GH3-TRE-Luc cell line; Tox21_110001=Tox21_300867) was greater than 90 µM and the CC50 at 24 h (in vitro) was 76.7 µM.
For `Oc1c(Cl)c(Cl)c(Cl)c(Cl)c1Cl` [Pentachlorophenol], the CC50 (GH3-TRE-Luc cell line; Tox21_110001=Tox21_300023) was 29.7 µM and the CC50 at 24 h (in vitro) was 34.5 µM.
With `C=CC(=O)OCC(CO)(COC(=O)C=C)COC(=O)C=C` [Pentaerythritol triacrylate] the CC50 (GH3-TRE-Luc cell line; Tox21_110001=Tox21_303252) was 2.61 µM and the CC50 at 24 h (in vitro) was 1.77 µM.
Compound `CC(COc1ccccc1)N(CCCl)Cc1ccccc1` (stereo not drawn) [Phenoxybenzamine hydrochloride] has a CC50 (GH3-TRE-Luc cell line; Tox21_110001=Tox21_302978) of 68.5 µM and a CC50 at 24 h (in vitro) of 45 µM.
`O=c1[nH]c2ccccc2n1C1CCN(CCCC(c2ccc(F)cc2)c2ccc(F)cc2)CC1` [Pimozide] showed a CC50 (GH3-TRE-Luc cell line; Tox21_110001=Tox21_110224) of 7.02 µM and a CC50 at 24 h (in vitro) of 8.93 µM.
Compound `CC(C)(C)C(=O)C1C(=O)c2ccccc2C1=O` [Pindone] has a CC50 (GH3-TRE-Luc cell line; Tox21_110001=Tox21_303317) of 71.8 µM and a CC50 at 24 h (in vitro) of 60.9 µM.
`CCCN(CCOc1c(Cl)cc(Cl)cc1Cl)C(=O)n1ccnc1` [Prochloraz] gave a CC50 (GH3-TRE-Luc cell line; Tox21_110001=Tox21_301179) of 70.8 µM and a CC50 at 24 h (in vitro) of 81.4 µM.
With `CC(=O)[C@H]1CC[C@H]2[C@@H]3CCC4=CC(=O)CC[C@]4(C)[C@H]3CC[C@]12C` [Progesterone] the CC50 (GH3-TRE-Luc cell line; Tox21_110001=Tox21_300307) was 81.7 µM and the CC50 at 24 h (in vitro) was 85.9 µM.
For `CC(CN1c2ccccc2Sc2ccccc21)N(C)C` (stereo not drawn) [Promethazine hydrochloride], the CC50 (GH3-TRE-Luc cell line; Tox21_110001=Tox21_302878) was 23 µM and the CC50 at 24 h (in vitro) was 12.2 µM.
